Patent US9745629B2, “In vitro method for screening for candidate compounds for preventing and/or attenuating ageing of the skin, and/or for hydrating the skin” (CHANEL PARFUMS BEAUTE, priority 2011, dated 2017)
Several values for one entry are separate records, joined by “and”; a condition that tells them apart may be missing. Identical values can stand only once.

Test system: LARGE protein
Test: Stimulation of the expression of LARGE protein in normal human keratinocytes (immunocytochemical staining)
Assay type: cell-based
Settings: 48 hours, visual staining scale from 1 to 5, untreated keratinocytes 2.03, one donor
Protocol: The effect of the Resveratrol used in Example 4 on the expression of the LARGE protein was evaluated in cultured keratinocytes. Keratinocytes derived from neonatal foreskin (Invitrogen, CA, USA) were cultivated in 6-well plates containing cover glasses coated with poly-L-ornithine (Sigma, MO) in keratinocyte culture medium with supplement (EpiLife, Invitrogen). After culturing for 24 hours at 37° C., the 40-50% confluent cells were washed with PBS buffer (Invitrogen, CA) and incubated with basal keratinocytes culture medium (EpiLife, Invitrogen) containing the extract to be tested, for 48 hours. The cytotoxicity of the extract was evaluated in human cultured keratinocytes before testing the activity. To quantify the expression of the LARGE protein in a treated sample relative to an untreated sample, immunocytochemical staining (ICC) of cover glasses with cultured keratinocytes was used. Staining was performed in triplicates, with primary goat anti-human LARGE antibodies (Santa Cruz, Calif.) and secondary donkey anti-goat antibodies (Rockland Immunochemicals, PA). The staining was visualized with AEC system (Lab Vision Corporation, CA). The extent of staining was assessed on thirty random images for each experimental condition, and a visual assessment of the staining was made using a scale from 1 to 5, with 1 being the least intense and 5 being the most intense. The significance of the difference between mean values was assessed using unpaired t test.

Compound: Oc1ccc(C=Cc2cc(O)cc(O)c2)cc1 [Resveratrol]
- Stimulation of LARGE protein (0.0005% (w/w)): 2.7 (±0.88) and 2.70
- Stimulation of LARGE protein (0.001% (w/w)): 2.67 (±0.55) and 2.67
- Stimulation of LARGE protein (0.002% (w/w)): 3.8 (±0.93) and 3.80
